The target in one assay is T1, trypsin (Bos taurus, UniProt P00760).
T1 construct: purchased Sigma; host or cells: bovine pancreas
T1 sequence (P00760 24-246): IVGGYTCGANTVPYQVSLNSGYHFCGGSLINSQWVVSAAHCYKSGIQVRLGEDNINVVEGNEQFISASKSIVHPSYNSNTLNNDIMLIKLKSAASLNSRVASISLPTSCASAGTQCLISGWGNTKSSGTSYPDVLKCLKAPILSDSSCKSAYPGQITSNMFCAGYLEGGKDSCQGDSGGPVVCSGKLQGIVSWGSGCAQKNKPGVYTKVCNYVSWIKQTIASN
Briefly: Determination of trypsin-inhibitory activity. To be noted: read-out: inhibition rate, trypsin. The format is biochemical, bovine. The essentials: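 Bovine pancreatic trypsin and compound in 50 mM Tris-HCl pH 8.0 with Pro-Phe-Arg-MCA substrate, 1 h at 30 °C, stopped on ice. Fluorescence at ex 370/em 440 nm. Inhibition rate from compound, no-enzyme and no-compound wells.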

The target of another assay is T2, chymotrypsin (Bos taurus, UniProt P00766).
T2 construct: purchased Sigma; host or cells: bovine pancreas
Briefly: Determination of chymotrypsin-inhibitory activity. Type of assay: biochemical, bovine. To be noted: read-out: inhibition rate, chymotrypsin. Summed up:
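Bovine pancreatic chymotrypsin (0.2 μM enzyme solution) assayed in 50 mM Tris-HCl, pH 8.0, with the fluorogenic substrate Suc-Leu-Leu-Val-Tyr-MCA. Fluorescence was read with and without inhibitor, and percent inhibition was calculated from the fluorescence values.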

The next assay has as its system leucine aminopeptidase. The experiment in a line: Determination of leucine aminopeptidase-inhibitory activity. Type of assay: biochemical, swine. The arrangement: unit not given here. The essentials:
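Swine kidney leucine aminopeptidase ([…] enzyme solution) was measured in 50 mM Tris-HCl pH 8.0 with 7-leucyl-4-methyl-coumarinamide (200 μM substrate solution). Inhibition rate was calculated from fluorescence readings.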

Another assay addresses T3, prolyl endopeptidase (Rattus norvegicus, UniProt O70196).
T3 construct: prolyl endopeptidase extracted from rat brain; from tissue; host or cells: rat brain
Briefly: Prolyl endopeptidase-inhibitory activity. Type of assay: biochemical. To be noted: for inhibition at 0.1 µM / inhibition at 1 µM: read-out: inhibition rate, prolyl endopeptidase; for IC50: prolyl endopeptidase extracted from rat brain, pH 7.0, 30° C., read-out: IC50. Summed up:
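Rat brain prolyl endopeptidase was preincubated with compound for 30 min at 30 °C in 0.1 M potassium sodium phosphate, pH 7.0. Substrate Suc-Gly-Pro-MCA was then added from a 0.2 mM stock and the reaction run 1 h at 30 °C. After ice stop, fluorescence was read (ex 370/em 440 nm), and IC50 was estimated graphically from % inhibition.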

For a further assay, the target named is T4, elastase (Sus scrofa, UniProt P00772).
T4 construct: purchased Sigma; host or cells: swine pancreas
T4 sequence (P00772 27-266): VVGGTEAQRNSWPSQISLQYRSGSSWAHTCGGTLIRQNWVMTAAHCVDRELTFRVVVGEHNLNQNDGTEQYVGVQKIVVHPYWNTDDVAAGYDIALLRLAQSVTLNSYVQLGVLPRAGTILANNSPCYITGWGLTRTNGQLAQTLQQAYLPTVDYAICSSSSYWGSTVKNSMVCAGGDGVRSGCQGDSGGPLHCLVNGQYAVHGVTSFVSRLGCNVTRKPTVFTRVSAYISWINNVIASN
Briefly: Determination of elastase-inhibitory activity. To be noted: read-out: inhibition rate, elastase. The format is biochemical, swine. The essentials:
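Porcine pancreatic elastase (0.2 μM solution) with 200 μM succinyl-Ala-Pro-Ala-4-methylcoumarinamide substrate solution in 1 mM Tris-HCl pH 8.5. Fluorescence measured and inhibition rate calculated by formula.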

The target in a further assay is T5, cathepsin B (Bos taurus, UniProt P07688).
T5 construct: purchased Sigma; host or cells: bovine spleen
The experiment in a line: Determination of cathepsin B-inhibitory activity. The format is biochemical, bovine. To be noted: read-out: inhibition rate, cathepsin B. Summed up:
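Bovine spleen cathepsin B (0.02 μM solution) was assayed in 100 mM sodium phosphate, pH 6.0, with 1.33 mM EDTA. The substrate was Z-Phe-Arg-4-methylcoumarinamide (200 μM solution). Percent inhibition was calculated from fluorescence readings.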

Each structure is given as a SMILES string.

T3 sequence (O70196 whole entry): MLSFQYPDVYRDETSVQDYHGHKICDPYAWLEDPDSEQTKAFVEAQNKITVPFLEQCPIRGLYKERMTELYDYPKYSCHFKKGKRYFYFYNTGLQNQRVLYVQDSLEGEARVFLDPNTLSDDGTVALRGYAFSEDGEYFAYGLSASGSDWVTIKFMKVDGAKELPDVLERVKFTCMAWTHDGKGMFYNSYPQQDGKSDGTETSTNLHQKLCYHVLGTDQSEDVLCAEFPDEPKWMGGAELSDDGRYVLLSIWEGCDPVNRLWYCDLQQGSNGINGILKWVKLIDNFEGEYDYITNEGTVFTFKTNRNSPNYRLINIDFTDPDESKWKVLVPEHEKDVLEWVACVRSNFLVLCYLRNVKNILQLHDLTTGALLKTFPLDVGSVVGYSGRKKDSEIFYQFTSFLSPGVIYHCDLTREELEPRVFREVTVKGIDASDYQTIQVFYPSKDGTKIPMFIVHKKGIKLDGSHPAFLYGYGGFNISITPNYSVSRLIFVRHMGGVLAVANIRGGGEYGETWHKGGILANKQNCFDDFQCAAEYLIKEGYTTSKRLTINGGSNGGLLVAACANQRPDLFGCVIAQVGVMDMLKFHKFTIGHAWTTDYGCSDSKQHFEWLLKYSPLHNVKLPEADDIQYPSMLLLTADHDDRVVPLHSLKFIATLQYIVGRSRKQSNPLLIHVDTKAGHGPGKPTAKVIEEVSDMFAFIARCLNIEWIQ

Turning to `O=C(COc1ccccc1)[C@@H]1CCCN1C(=O)[C@@H]1CCCN1C(=O)NCc1ccc(Cl)cc1` [Compound 30, (2S)-1-[N-(4-Chlorobenzylaminocarbonyl)-L-prolyl]-2-(phenoxyacetyl)pyrrolidine], the inhibition at 0.1 µM was determined as 0% on trypsin; 0% on chymotrypsin; 99% on prolyl endopeptidase; 0% at elastase; 0% at cathepsin B. The “inhibition rate, leucine aminopeptidase” value in the assay on leucine aminopeptidase (0.1 μM) is reported as 0. Besides, on prolyl endopeptidase, the half-maximal inhibitory concentration (IC50) was 0.6 nM.
Turning to `CCCCCCCC(=O)N1CCC[C@H]1C(=O)N1CCC[C@H]1C(=O)COc1ccccc1` [Compound 31, (2S)-1-(N-Octanoyl-L-prolyl)-2-(phenoxyacetyl)pyrrolidine], the inhibition at 0.1 µM at trypsin was 0%; at chymotrypsin, 0%; on prolyl endopeptidase it was 97%; at elastase it was 0%; at cathepsin B, 0%. The “inhibition rate, leucine aminopeptidase” value in the assay on leucine aminopeptidase (0.1 μM) stood at 0. Moreover, the half-inhibitory concentration (IC50) on prolyl endopeptidase was 4.5 nM.
With `O=C(COCc1ccccc1)[C@@H]1CCCN1C(=O)[C@@H]1CCCN1C(=O)NCc1ccccc1` [Compound 32], the inhibition at 0.1 µM on trypsin was found to be 0%; at chymotrypsin, 0%; at prolyl endopeptidase, 96%; on elastase, 0%; at cathepsin B, 0%. The “inhibition rate, leucine aminopeptidase” value in the assay on leucine aminopeptidase (0.1 μM) turned out to be 0. For the same molecule, the IC50 at prolyl endopeptidase came out at 1 nM.
With `O=C(COc1ccccc1)[C@@H]1CCCN1C(=O)[C@@H]1CCCN1C(=O)COc1ccccc1` [Compound 46, (2S)-2-(Phenoxyacetyl)-1-[N-(phenoxyacetyl)-L-prolyl]pyrrolidine], the inhibition at 1 µM at trypsin was determined as 0%; at chymotrypsin, 0%; at prolyl endopeptidase it was 93%; on elastase, 0%; on cathepsin B, 0%. Besides, the “inhibition rate, leucine aminopeptidase” value in the assay with leucine aminopeptidase (1 μM) turned out to be 0. The IC50 at prolyl endopeptidase was 60 nM.
Turning to `COc1ccc(OCC(=O)[C@@H]2CCCN2C(=O)[C@@H]2CCCN2C(=O)COc2ccccc2)cc1` [Compound 47, (2S)-2-(4-Methoxyphenoxyacetyl)-1-[N-(phenoxyacetyl)-L-prolyl]pyrrolidine], the inhibition at 1 µM at trypsin stood at 0%; at chymotrypsin, 0%; at prolyl endopeptidase, 98%; at elastase it was 0%; at cathepsin B it was 0%. Also, the “inhibition rate, leucine aminopeptidase” value with leucine aminopeptidase (1 μM) came to 0. Moreover, on prolyl endopeptidase, the IC50 was found to be 50 nM.
`COc1ccc(OCC(=O)[C@@H]2CCCN2C(=O)[C@@H]2CCCN2C(=O)CNc2ccccc2)cc1` [Compound 48, (2S)-2-(4-Methoxyphenoxyacetyl)-1-[N-(N-phenylglycyl)-L-prolyl]pyrrolidine]: the inhibition at 1 µM on trypsin was found to be 0%; on chymotrypsin, 0%; on prolyl endopeptidase it was 90%; at elastase, 0%; at cathepsin B it was 0%. For the same molecule, in the assay with leucine aminopeptidase (1 μM), the “inhibition rate, leucine aminopeptidase” value turned out to be 0. Moreover, the concentration for half-maximal inhibition (IC50) on prolyl endopeptidase is 60 nM.
Regarding `COc1ccc(OCC(=O)[C@@H]2CCCN2C(=O)[C@@H]2CCCN2C(=O)CSc2ccccc2)cc1` [Compound 49, (25)-2-(4-Methoxyphenoxyacetyl)-1-{N-[(phenylthio)acetyl]-L-prolyl}pyrrolidine], the inhibition at 1 µM is 0% on trypsin; 0% at chymotrypsin; 98% at prolyl endopeptidase; 0% on elastase; 0% on cathepsin B. Moreover, in the assay with leucine aminopeptidase (1 μM), the “inhibition rate, leucine aminopeptidase” value is recorded as 0. For the same molecule, the half-inhibitory concentration (IC50) at prolyl endopeptidase was 20 nM.
Consider `COc1ccc(OCC(=O)[C@@H]2CCCN2C(=O)[C@@H]2CCCN2C(=O)OCC23CC4CC(CC(C4)C2)C3)cc1` [Compound 50, (2S)-1-{N-[(1-Adamantyl)methoxycarbonyl]-L-prolyl}-2-(4-methoxyphenoxyacetyl)pyrrolidine], for which the inhibition at 1 µM at trypsin amounted to 0%; on chymotrypsin, 0%; at prolyl endopeptidase, 97%; at elastase, 0%; at cathepsin B, 0%. Besides, the “inhibition rate, leucine aminopeptidase” value in the assay with leucine aminopeptidase (1 μM) amounted to 0. Further, the IC50 on prolyl endopeptidase was found to be 500 nM.
As to `O=C(COc1ccccc1)[C@@H]1CCCN1C(=O)[C@@H]1CSCN1C(=O)NCc1ccccc1` [Compound 51, (2S)-1-[N-(Benzylaminocarbonyl)-L-thioprolyl]-2-(phenoxyacetyl)pyrrolidine], the inhibition at 1 µM at trypsin was determined as 0%; on chymotrypsin it was 0%; at prolyl endopeptidase, 98%; on elastase, 0%; on cathepsin B it was 0%. Moreover, the “inhibition rate, leucine aminopeptidase” value with leucine aminopeptidase (1 μM) amounted to 0. In addition, the IC50 at prolyl endopeptidase was 15 nM.
`CCOC(=O)CN(Cc1ccccc1)C(=O)N1CCC[C@H]1C(=O)N1CCC[C@H]1C(=O)COc1ccccc1` [Compound 52, (2S)-1-{N-[N-Benzyl-N-(ethoxycarbonylmethyl)aminocarbonyl]-L-prolyl}-2-(phenoxyacetyl)pyrrolidine]: the inhibition at 0.1 µM at trypsin turned out to be 0%; at chymotrypsin it was 0%; at prolyl endopeptidase it was 97%; on elastase, 0%; at cathepsin B it was 0%. Besides, the “inhibition rate, leucine aminopeptidase” value in the assay with leucine aminopeptidase (0.1 μM) worked out at 0. At prolyl endopeptidase, the half-inhibitory concentration (IC50) is 2 nM.
On to `CCOC(=O)[C@@H](NC(=O)N1CCC[C@H]1C(=O)N1CCC[C@H]1C(=O)COc1ccccc1)c1ccccc1` [Compound 53, (2S)-1-[N-[[(S)-α-(Ethoxycarbonyl)benzylamino]carbonyl]-L-prolyl]-2-(phenoxyacetyl)pyrrolidine], for which the inhibition at 1 µM on trypsin came to 0%; on chymotrypsin, 0%; on prolyl endopeptidase it was 96%; at elastase, 0%; at cathepsin B, 0%. For the same molecule, the “inhibition rate, leucine aminopeptidase” value in the assay with leucine aminopeptidase (1 μM) turned out to be 0. For the same molecule, at prolyl endopeptidase, the IC50 came to 30 nM.
As to `O=C(COc1ccccn1)[C@@H]1CCCN1C(=O)[C@@H]1CCCN1C(=O)NCc1ccccc1` [Compound 54, (2S)-1-[N-(Benzylaminocarbonyl)-L-prolyl]-2-[(2-pyridyloxy)acetyl]pyrrolidine], the inhibition at 1 µM on trypsin came out at 0%; at chymotrypsin, 0%; at prolyl endopeptidase, 85%; on elastase, 0%; on cathepsin B, 0%. In the assay with leucine aminopeptidase (1 μM), the “inhibition rate, leucine aminopeptidase” value is listed as 0. The IC50 on prolyl endopeptidase came to 200 nM.

By inhibition is commonly meant the drop in the measured response relative to a control, in per cent. As usually defined, the IC50 is the midpoint of a concentration-inhibition curve.

Source of the values: patent publication US5506256A, “Proline derivatives possessing prolyl endopeptidase-inhibitory activity” (Yoshitomi Pharmaceutical Industries, Ltd., priority 1990, dated 1996).
